According to ChEMBL document CHEMBL5465560, “Selectivity Literature for EUbOPEN Chemogenomic Library” (2024):
One block for each molecule: values may come before it.

Columns and labels:
[1] = biological target: Epithelial discoidin domain-containing receptor 1 (Homo sapiens) (UniProt Q08345); test: Selectivity interaction (Kinase panel (Reaction Biology)) EUB0001464a DDR1; conditions: at 1 µM
[2] = biological target: Mitogen-activated protein kinase kinase kinase kinase 5 (Homo sapiens) (UniProt Q9Y4K4); test: Selectivity interaction (Kinase panel (Reaction Biology)) EUB0001464a MAP4K5; conditions: at 1 µM
[3] = biological target: T1, 5-hydroxytryptamine receptor 2B (Homo sapiens, UniProt P41595); test: Selectivity interaction (GPCR panel (PDSP screen)) EUB0001576a HTR2B; conditions: at 10 µM
[4] = biological target: Sodium-dependent dopamine transporter (Homo sapiens, UniProt Q01959); test: Selectivity interaction (GPCR panel (PDSP screen)) EUB0001576a SLC6A3; conditions: at 10 µM
[5] = biological target: Sigma intracellular receptor 2 (Homo sapiens) (UniProt Q5BJF2); test: Selectivity interaction (GPCR panel (PDSP screen)) EUB0001576a TMEM97; conditions: at 10 µM
[6] = biological target: Calcium/calmodulin-dependent protein kinase type II subunit gamma (Homo sapiens) (UniProt Q13555); test: Selectivity interaction (KinaseProfile service (Milipore)) EUB0001485aCl CAMK2G; conditions: at 1 µM
[7] = biological target: Calcium/calmodulin-dependent protein kinase type II subunit delta (Homo sapiens) (UniProt Q13557); conditions: at 1 µM
[8] = biological target: MAP kinase-interacting serine/threonine-protein kinase 2 (Homo sapiens, UniProt Q9HBH9); conditions: at 1 µM
[9] = biological target: Serine/threonine-protein kinase 24 (Homo sapiens) (UniProt Q9Y6E0); test: Selectivity interaction (Kinase panel (DSF assay)) EUB0001479a STK24
[10] = biological target: Serine/threonine-protein kinase PAK 1 (Homo sapiens) (UniProt Q13153); test: Selectivity interaction (Kinase panel (DSF assayt)) EUB0001479a PAK1
[11] = biological target: T2, Serine/threonine-protein kinase 26 (Homo sapiens, UniProt Q9P289); test: Selectivity interaction (Kinase panel (DSF assay)) EUB0001479a STK26
[12] = biological target: Bone morphogenetic protein receptor type-1B (Homo sapiens, UniProt O00238); test: Selectivity interaction (Kinase panel (Reaction Biology)) EUB0001184b BMPR1B; conditions: at 1 µM
[13] = biological target: Mitogen-activated protein kinase kinase kinase kinase 4 (Homo sapiens, UniProt O95819); test: Selectivity interaction (Kinase panel (Reaction Biology)) EUB0001184b MAP4K4; conditions: at 1 µM
[14] = biological target: TRAF2 and NCK-interacting protein kinase (Homo sapiens) (UniProt Q9UKE5); test: Selectivity interaction (Kinase panel (Reaction Biology)) EUB0001184b TNIK; conditions: at 1 µM
[15] = biological target: 5-hydroxytryptamine receptor 4 (Homo sapiens) (UniProt Q13639); test: Selectivity interaction (CEREB panel (panel of receptors, transporters, ion channels, and other enzymes)) EUB0001119a HTR4; conditions: at 10 µM
[16] = biological target: T3, 5-hydroxytryptamine receptor 1A (Homo sapiens) (UniProt P08908); test: Selectivity interaction (CEREB panel (panel of receptors, transporters, ion channels, and other enzymes)) EUB0001119a HTR1A; conditions: at 10 µM
T3 sequence (whole entry): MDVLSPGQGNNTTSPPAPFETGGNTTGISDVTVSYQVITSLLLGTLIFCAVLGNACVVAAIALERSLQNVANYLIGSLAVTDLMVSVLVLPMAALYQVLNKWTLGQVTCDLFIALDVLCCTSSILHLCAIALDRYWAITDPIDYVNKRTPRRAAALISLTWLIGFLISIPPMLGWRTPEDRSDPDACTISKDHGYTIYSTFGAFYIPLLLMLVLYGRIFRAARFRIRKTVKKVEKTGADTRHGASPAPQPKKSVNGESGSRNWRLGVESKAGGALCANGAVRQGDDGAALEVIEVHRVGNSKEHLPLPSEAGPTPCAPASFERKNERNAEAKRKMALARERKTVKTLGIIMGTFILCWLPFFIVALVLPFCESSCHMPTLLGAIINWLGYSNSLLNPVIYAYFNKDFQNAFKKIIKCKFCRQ

[17] = biological target: 5-hydroxytryptamine receptor 1B (Homo sapiens) (UniProt P28222); test: Selectivity interaction (CEREB panel (panel of receptors, transporters, ion channels, and other enzymes)) EUB0001119a HTR1B; conditions: at 10 µM
[18] = biological target: 5-hydroxytryptamine receptor 2A (Homo sapiens, UniProt P28223); test: Selectivity interaction (CEREB panel (panel of receptors, transporters, ion channels, and other enzymes)) EUB0001119a HTR2A; conditions: at 10 µM
[19] = biological target: T1, 5-hydroxytryptamine receptor 2B; test: Selectivity interaction (CEREB panel (panel of receptors, transporters, ion channels, and other enzymes)) EUB0001119a HTR2B; conditions: at 10 µM
[20] = biological target: Mitogen-activated protein kinase kinase kinase kinase 5 (Homo sapiens) (UniProt Q9Y4K4); test: Selectivity interaction (Kinase panel (Invitrogen)) EUB0001119a MAP4K5; conditions: at 100 nM
[21] = biological target: Tyrosine-protein kinase Lck (Homo sapiens, UniProt P06239); test: Selectivity interaction (Kinase panel (Invitrogen)) EUB0001119a LCK; conditions: at 100 nM
[22] = biological target: Serine/threonine-protein kinase 24 (Homo sapiens) (UniProt Q9Y6E0); test: Selectivity interaction (Kinase panel (Invitrogen)) EUB0001119a STK24; conditions: at 100 nM
[23] = biological target: Serine/threonine-protein kinase PAK 3 (Homo sapiens) (UniProt O75914); test: Selectivity interaction (Kinase panel (Invitrogen)) EUB0001119a PAK3; conditions: at 100 nM
[24] = biological target: Sodium channel protein type 2 subunit alpha (Homo sapiens) (UniProt Q99250); test: Selectivity interaction (CEREB panel (panel of receptors, transporters, ion channels, and other enzymes)) EUB0001119a SCN2A; conditions: at 10 µM
[25] = biological target: Serine/threonine-protein kinase SIK1 (Homo sapiens) (UniProt P57059); test: Selectivity interaction (Kinase panel (Invitrogen)) EUB0001119a SIK1; conditions: at 100 nM
[26] = biological target: Serine/threonine-protein kinase PAK 2 (Homo sapiens) (UniProt Q13177); conditions: at 100 nM
[27] = biological target: T2, Serine/threonine-protein kinase 26; conditions: at 100 nM

T2 sequence (Q9P289 2-416 limits assumed): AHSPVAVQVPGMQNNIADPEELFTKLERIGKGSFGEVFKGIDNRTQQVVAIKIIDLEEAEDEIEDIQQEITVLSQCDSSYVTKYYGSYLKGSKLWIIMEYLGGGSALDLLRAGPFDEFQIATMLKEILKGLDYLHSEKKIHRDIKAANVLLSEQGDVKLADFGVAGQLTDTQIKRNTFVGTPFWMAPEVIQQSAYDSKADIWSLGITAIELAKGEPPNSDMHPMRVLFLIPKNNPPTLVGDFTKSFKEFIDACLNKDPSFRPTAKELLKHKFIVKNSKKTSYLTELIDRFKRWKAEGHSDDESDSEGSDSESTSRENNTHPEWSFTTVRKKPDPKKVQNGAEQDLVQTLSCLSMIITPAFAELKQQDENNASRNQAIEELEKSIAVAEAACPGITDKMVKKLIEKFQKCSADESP
Sequence of Serine/threonine-protein kinase 24 (Homo sapiens) (Q9Y6E0 whole entry, looked up): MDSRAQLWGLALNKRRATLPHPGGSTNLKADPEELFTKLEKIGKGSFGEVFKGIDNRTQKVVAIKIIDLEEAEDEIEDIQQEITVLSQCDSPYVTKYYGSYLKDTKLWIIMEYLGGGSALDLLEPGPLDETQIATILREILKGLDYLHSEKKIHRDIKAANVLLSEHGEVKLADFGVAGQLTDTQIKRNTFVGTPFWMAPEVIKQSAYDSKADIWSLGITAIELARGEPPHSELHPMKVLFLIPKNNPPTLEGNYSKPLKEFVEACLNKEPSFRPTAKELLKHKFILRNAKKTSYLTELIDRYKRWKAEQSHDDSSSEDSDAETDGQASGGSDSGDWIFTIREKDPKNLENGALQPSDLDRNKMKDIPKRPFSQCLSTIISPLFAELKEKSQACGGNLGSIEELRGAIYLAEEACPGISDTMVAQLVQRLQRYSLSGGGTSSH
Sequence of Mitogen-activated protein kinase kinase kinase kinase 5 (Homo sapiens) (Q9Y4K4 whole entry, looked up): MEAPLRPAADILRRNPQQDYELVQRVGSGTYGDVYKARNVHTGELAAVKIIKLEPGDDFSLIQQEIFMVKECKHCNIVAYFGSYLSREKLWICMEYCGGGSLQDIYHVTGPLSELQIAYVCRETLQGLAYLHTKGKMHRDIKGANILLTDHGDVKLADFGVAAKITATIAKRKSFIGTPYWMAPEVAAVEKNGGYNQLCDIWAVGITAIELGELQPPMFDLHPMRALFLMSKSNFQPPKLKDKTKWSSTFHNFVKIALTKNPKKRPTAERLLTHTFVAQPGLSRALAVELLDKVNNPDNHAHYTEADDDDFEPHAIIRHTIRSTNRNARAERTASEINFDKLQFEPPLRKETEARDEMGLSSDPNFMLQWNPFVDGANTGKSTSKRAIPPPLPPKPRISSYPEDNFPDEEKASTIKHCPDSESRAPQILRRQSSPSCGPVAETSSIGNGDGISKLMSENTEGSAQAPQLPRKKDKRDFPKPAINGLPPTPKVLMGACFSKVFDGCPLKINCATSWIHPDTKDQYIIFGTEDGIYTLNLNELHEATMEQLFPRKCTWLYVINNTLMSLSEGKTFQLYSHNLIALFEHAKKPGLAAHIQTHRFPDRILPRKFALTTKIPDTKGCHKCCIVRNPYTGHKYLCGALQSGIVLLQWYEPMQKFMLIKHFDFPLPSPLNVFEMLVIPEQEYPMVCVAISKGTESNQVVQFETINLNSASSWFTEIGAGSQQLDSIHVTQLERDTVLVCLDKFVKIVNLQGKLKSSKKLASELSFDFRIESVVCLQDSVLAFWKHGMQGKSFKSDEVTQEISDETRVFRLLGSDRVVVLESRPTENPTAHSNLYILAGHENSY
T1 sequence (P41595 whole entry): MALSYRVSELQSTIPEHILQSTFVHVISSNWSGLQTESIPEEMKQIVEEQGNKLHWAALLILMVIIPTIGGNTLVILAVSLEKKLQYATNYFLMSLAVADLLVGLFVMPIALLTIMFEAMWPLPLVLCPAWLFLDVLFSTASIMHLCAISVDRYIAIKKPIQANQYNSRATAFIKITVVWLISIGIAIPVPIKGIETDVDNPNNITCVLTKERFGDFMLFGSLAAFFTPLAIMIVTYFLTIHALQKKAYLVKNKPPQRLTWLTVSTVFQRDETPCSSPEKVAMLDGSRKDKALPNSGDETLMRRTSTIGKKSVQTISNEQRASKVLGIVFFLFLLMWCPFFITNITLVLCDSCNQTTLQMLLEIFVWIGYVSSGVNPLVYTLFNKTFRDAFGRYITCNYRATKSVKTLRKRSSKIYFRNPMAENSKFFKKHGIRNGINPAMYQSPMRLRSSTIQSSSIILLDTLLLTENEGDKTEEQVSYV
Sequence of Calcium/calmodulin-dependent protein kinase type II subunit gamma (Homo sapiens) (Q13555 whole entry): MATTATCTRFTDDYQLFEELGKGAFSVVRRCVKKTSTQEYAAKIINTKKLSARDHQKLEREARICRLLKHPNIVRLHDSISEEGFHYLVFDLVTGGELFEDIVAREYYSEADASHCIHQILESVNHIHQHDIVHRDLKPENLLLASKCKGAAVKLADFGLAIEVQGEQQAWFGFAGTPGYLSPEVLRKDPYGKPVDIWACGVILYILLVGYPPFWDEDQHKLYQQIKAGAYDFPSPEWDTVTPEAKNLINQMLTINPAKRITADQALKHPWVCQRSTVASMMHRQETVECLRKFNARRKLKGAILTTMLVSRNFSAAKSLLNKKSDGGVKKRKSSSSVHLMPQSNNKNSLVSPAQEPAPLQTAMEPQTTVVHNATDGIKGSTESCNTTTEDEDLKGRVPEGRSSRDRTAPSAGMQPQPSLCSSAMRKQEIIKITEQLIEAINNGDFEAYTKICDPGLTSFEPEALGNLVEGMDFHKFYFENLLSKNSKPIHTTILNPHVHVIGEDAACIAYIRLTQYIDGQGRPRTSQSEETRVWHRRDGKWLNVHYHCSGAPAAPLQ
Sequence of TRAF2 and NCK-interacting protein kinase (Homo sapiens) (Q9UKE5 whole entry, looked up): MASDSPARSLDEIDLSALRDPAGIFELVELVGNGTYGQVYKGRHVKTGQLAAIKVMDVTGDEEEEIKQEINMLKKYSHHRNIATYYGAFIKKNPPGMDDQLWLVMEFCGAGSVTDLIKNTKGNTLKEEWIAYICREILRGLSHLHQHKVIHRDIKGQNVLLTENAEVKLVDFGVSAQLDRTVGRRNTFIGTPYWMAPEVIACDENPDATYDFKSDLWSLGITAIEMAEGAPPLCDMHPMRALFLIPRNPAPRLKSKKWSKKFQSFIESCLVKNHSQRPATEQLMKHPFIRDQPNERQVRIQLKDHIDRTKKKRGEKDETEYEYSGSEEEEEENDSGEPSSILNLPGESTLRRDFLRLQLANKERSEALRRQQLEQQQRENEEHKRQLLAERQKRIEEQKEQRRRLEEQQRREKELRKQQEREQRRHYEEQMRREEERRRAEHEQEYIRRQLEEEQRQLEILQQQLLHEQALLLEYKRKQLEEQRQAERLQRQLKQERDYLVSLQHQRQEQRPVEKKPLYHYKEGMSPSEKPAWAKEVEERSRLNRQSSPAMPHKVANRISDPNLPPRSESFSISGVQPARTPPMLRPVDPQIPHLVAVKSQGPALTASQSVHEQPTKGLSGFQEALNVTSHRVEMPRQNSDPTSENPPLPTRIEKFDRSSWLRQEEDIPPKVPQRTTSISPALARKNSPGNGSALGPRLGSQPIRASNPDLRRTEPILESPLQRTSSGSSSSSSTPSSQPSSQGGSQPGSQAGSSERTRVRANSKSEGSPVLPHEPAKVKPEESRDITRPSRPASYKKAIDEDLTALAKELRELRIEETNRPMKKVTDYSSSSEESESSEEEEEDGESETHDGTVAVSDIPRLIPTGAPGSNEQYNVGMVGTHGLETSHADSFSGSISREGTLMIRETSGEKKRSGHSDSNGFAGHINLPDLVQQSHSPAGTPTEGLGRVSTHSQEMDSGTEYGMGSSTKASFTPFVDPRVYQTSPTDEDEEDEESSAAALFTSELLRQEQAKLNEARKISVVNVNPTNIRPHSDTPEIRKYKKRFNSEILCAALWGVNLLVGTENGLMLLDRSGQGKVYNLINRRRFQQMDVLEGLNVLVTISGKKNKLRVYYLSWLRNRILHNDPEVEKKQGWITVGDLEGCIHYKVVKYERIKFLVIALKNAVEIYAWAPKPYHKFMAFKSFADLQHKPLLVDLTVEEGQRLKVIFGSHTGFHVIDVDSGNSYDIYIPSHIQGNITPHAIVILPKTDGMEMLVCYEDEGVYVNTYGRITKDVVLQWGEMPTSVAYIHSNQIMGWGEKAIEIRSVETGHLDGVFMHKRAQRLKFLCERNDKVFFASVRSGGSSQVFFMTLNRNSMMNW
Sequence of Serine/threonine-protein kinase PAK 3 (Homo sapiens) (O75914 whole entry, looked up): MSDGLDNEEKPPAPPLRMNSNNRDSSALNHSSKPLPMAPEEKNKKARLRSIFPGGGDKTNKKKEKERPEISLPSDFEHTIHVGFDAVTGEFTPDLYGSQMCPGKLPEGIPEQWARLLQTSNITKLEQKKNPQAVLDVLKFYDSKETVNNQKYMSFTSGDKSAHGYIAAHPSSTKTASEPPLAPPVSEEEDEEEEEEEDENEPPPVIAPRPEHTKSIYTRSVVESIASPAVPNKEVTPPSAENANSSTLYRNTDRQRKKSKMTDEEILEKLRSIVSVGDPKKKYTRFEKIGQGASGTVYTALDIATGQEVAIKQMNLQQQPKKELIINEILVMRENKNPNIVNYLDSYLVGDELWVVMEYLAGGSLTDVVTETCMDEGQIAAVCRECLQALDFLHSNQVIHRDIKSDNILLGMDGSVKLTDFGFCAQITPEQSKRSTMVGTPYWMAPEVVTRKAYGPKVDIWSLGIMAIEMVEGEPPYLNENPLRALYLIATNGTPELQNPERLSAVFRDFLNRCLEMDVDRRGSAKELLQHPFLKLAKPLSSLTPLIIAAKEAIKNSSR
Sequence of Sigma intracellular receptor 2 (Homo sapiens) (Q5BJF2 whole entry): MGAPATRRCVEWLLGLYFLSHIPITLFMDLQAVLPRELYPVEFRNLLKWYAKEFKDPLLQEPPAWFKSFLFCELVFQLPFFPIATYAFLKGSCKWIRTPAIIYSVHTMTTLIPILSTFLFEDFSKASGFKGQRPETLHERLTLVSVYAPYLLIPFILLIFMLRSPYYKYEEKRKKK

- % of control [6]: 59%
- % of control [7]: 60%
- % of control [8]: 55%
SMILES: COc1cc(-c2cn[nH]c2)ccc1C(=O)Nc1ccc2c(c1)CCNCC2

- % of inhibition [12]: 27%
- % of inhibition [13]: 30%
- % of inhibition [14]: 4.92%
SMILES: COc1cc(-c2cncc(-c3ccc(N4CCN(C(C)C)CC4)cc3)c2C)cc(F)c1C(N)=O

Continued, molecule first:

SMILES: c1ccc2c(-c3coc4cc(-c5ccc(N6CCNCC6)cc5)cnc34)ccnc2c1
- % of inhibition [1]: 28%
- % of inhibition [2]: 28%

SMILES: CN(C)C(=O)c1sc2nc(N3CCC(S(C)(=O)=O)CC3)cc(C(F)(F)F)c2c1N
- % of inhibition [3]: 47.5%
- % of inhibition [4]: 80.5%
- % of inhibition [5]: 70.6%

SMILES: CN(C)c1ncc2cc(-c3ccc(-c4ncccc4F)cc3Cl)c(=O)n(C[C@H]3OC[C@H](N)CO3)c2n1
- dTM [9]: 0.2 K
- dTM [10]: 0.9 K
- dTM [11]: 0.8 K

SMILES: CNc1ncc2cc(-c3ccc(-c4cccc(C)n4)cc3Cl)c(=O)n(C[C@H]3OC[C@H](N)CO3)c2n1
- % of inhibition [15]: 75%
- % of inhibition [16]: 56%
- % of inhibition [17]: 84%
- % of inhibition [18]: 75%
- % of inhibition [19]: 92%
- % of inhibition [20]: 99.8%
- % of inhibition [21]: 75.7%
- % of inhibition [22]: 80.6%
- % of inhibition [23]: 91.5%
- % of inhibition [24]: 75%
- % of inhibition [25]: 95.3%
- % of inhibition [26]: 101%
- % of inhibition [27]: 89.7%
